Laboratory results as given in patent US4996211A, “Substituted dibenzocycloheptenimines” (Merck Sharp & Dohme Ltd., priority 1987, dated 1991).
Counter-ions that a name gives are not always drawn.

System: tonic seizures induced by N-methyl-DL-aspartic acid (NMDLA)
Assay: Antagonism of NMDLA-induced tonic seizures in mice
Assay type: in vivo, mouse (male Swiss-Webster)
Conditions: Mus musculus, iv; i.v. 15 min before s.c. NMDLA (500 mg/kg); groups of 8 mice, observed 30 min; probit analysis
Method: The compounds useful in this invention bind with a high affinity and in a reversible and saturable manner to membranes from rat brain cortex. In addition these compounds potently and selectively block responses to NMDA in a brain slice from rat cortex, and antagonise NMDA-induced seizures in the mouse.
Compounds of the invention were examined for their ability to antagonise tonic seizures induced by N-methyl-DL-aspartic acid (NMDLA). Groups of 8 male Swiss-Webster mice (25-30 g) were injected intravenously with the test compound at various doses, 15 min before s.c. administration of NMDLA (500 mg/kg). […] ED50 values for the antagonism of the NMDLA induced tonic seizures were determined using probit analysis.

Work on `CC12NC(Cc3ccc(CO)cc31)c1ccccc12` (stereo not shown) [Example 12, 3-HYdroxymethyl-5-methyl-10,11-dihydro-5H-dibenzo-[a,d]cyclohepten-5,10-imine] yielded an ED50 of less than 10 mg/kg.

For `Cc1ccc2c(c1)C1(C)NC2Cc2ccccc21` (stereo not shown) [Example 1, 5,7-Dimethyl-10.11-dihydro-5H-dibenzo[a,d]cyclohepten-5,10-imine], the ED50 was less than 10 mg/kg.

`Cc1ccc2c(c1)C1(C)NC(C2)c2ccccc21` (stereo not shown) [Example 2, 3.5-Dimethyl-10,11-dihYdro-5H-dibenzo[a,d]cyclohepten-5,10-imine] gave an ED50 of less than 10 mg/kg.

For `CC12NC(Cc3ccc(-c4ccccc4)cc31)c1ccccc12` (stereo not shown) [Example 6, 5-Methyl-3-phenyl-10,11-dihydro-5H-dibenzo-[a,d]cyclohepten-5,10-imine hydrochloride], the ED50 was less than 10 mg/kg.
